Earlier results as cited in patent publication US20100069356A1, “DIBENZO[…] DOPAMINE, ALPHA […], AND SEROTONIN RECEPTORS” (AUSPEX PHARMACEUTICALS, INC., priority 2008, published 2010).

Conditions: in vivo

- half-life: ~6 h
SMILES: OCCOCCN1CCN(C2=Nc3ccccc3Sc3ccccc32)CC1 [Quetiapine, 2-(2-(4-dibenzo[b,f][1,4]thiazepine-11-yl-1-piperazinyl)ethoxy)ethanol]
